{
  "source": "paper PMC5999578",
  "about": "(Journal of the American Chemical Society, 2018)",
  "target": "VioC (Streptomyces vinaceus, UniProt Q6WZB0)",
  "sequence (Q6WZB0 whole entry)": "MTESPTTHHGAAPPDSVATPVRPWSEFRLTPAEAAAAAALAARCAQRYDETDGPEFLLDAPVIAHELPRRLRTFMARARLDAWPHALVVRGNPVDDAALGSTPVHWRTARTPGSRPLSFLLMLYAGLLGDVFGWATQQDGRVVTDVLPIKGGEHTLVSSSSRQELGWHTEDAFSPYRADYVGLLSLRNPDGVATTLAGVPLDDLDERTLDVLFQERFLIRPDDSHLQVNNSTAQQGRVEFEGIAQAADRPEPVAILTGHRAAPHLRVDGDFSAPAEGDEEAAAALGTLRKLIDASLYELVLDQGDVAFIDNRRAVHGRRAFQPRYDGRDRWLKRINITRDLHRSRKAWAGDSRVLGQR",
  "assay": "X-ray crystal structure, […] A",
  "type": "binding",
  "details": "vanadyl (ferryl mimic) in place of Fe, L-hArg",
  "data": [
    {"smiles": "O=C(O)CCC(=O)O", "note": "[succinate]", "values": [
      {"measurement": "X-ray crystal structure, 1.70 A", "result": "crystals of the VioC•VO•succinate•L-hArg complex"}
    ]}
  ]
}
